Data as given in US20250368649A1, “TETRAHYDROPYRIDOPYRIMIDINE PAN-KRAS INHIBITORS” (Mirati Therapeutics, Inc., priority 2022, published 2025).

Key:
[1] = test system: ASPC1 cells; assay: Inhibition of KRas-mediated phosphorylation of ERK (Cisbio HTRF pERK), ASPC1 cells; type: cell-based; details: Homo sapiens, AsPC-1 cells; for IC50: ASPC1, 3 h, 3 hr compound incubation, Cisbio pERK HTRF; for inhibition at 0.1 µM: ASPC1, single point at 100 nM, 3 hrs compound incubation
[2] = target: KRas G12D (Homo sapiens, UniProt P01116, G12D); assay: biochemical; details: Binding to KRas (IC50 nM) G12D, TR-FRET displacement, KRas G12D
Chain of KRas G12D (P01116 1-169 isoform P01116-2 G12D): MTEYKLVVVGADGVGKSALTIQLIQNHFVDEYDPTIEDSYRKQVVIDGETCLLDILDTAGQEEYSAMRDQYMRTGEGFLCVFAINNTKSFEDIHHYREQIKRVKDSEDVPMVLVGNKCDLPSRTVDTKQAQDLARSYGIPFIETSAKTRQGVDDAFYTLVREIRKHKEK

[3] = target: KRas Q61H (Homo sapiens, UniProt P01116, Q61H); assay: KRas binding assay (TR-FRET displacement), KRas Q61H; details: single point, 10 nM compound
Chain of KRas Q61H (P01116 1-169 isoform P01116-2 Q61H): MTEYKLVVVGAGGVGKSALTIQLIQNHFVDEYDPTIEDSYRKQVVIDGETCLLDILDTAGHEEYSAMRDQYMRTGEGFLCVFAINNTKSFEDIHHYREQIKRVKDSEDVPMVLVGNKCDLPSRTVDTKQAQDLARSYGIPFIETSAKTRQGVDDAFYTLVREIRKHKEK

[4] = target: KRas G13D (Homo sapiens, UniProt P01116, G13D); type: binding; details: single point, 10 nM compound, read-out: Binding to KRas (% inhibition at 10 nM) G13D
Chain of KRas G13D (P01116 1-169 isoform P01116-2 G13D): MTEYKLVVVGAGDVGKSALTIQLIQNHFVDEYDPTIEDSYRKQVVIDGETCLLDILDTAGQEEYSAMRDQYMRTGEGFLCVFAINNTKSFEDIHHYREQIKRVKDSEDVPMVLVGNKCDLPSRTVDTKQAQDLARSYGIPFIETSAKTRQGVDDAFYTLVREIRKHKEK

[5] = test system: A549 cells; assay: Inhibition of KRas-mediated phosphorylation of ERK (Cisbio HTRF pERK), A549 cells; type: cell-based; details: Homo sapiens; for IC50: A549, 3 h, 3 hr compound incubation, Cisbio pERK HTRF; for inhibition at 0.1 µM: single point at 100 nM, 3 hrs compound incubation
[6] = target: KRas G12A (Homo sapiens, UniProt P01116, G12A); type: binding; details: single point, 10 nM compound, read-out: Binding to KRas (% inhibition at 10 nM) G12A
Chain of KRas G12A (P01116 1-169 isoform P01116-2 G12A): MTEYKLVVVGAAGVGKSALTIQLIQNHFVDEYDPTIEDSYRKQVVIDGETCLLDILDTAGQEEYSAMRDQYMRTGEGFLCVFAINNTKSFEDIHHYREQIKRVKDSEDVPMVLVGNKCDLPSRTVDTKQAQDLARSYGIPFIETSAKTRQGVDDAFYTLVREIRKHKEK

[7] = target: KRas G12S (Homo sapiens, UniProt P01116, G12S); type: binding; details: single point, 10 nM compound, read-out: Binding to KRas (% inhibition at 10 nM) G12S
Chain of KRas G12S (P01116 1-169 isoform P01116-2 G12S): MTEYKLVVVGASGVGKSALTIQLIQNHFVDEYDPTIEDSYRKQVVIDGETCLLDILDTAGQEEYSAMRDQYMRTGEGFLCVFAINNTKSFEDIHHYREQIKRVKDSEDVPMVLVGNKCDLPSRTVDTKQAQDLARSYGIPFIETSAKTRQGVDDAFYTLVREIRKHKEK

[8] = target: KRas WT (Homo sapiens, UniProt P01116); assay: KRas binding assay (TR-FRET displacement), KRas WT; details: single point, 10 nM compound
Chain of KRas WT (P01116 1-169 isoform P01116-2): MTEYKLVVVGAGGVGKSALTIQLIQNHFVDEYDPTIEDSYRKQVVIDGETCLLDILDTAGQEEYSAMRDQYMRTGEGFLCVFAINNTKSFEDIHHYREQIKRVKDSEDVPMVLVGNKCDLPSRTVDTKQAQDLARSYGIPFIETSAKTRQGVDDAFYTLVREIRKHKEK

[9] = target: KRas G12R (Homo sapiens, UniProt P01116, G12R); assay: biochemical; details: Binding to KRas (IC50 nM) G12R, TR-FRET displacement, KRas G12R
Chain of KRas G12R (P01116 1-169 isoform P01116-2 G12R): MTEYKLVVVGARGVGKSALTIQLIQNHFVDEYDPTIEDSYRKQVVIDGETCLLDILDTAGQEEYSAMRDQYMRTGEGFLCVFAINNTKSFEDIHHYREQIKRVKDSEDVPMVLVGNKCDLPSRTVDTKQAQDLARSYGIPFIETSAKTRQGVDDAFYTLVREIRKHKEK

[10] = test system: H358 cells; assay: Inhibition of KRas-mediated phosphorylation of ERK (Cisbio HTRF pERK), H358 cells; type: cell-based; details: Homo sapiens; for IC50: NCI-H358, 3 h, 3 hr compound incubation, Cisbio pERK HTRF; for inhibition at 0.1 µM: NCI-H358, single point at 100 nM, 3 hrs compound incubation
[11] = test system: H460 cells; assay: Inhibition of KRas-mediated phosphorylation of ERK (Cisbio HTRF pERK), H460 cells; type: cell-based; details: Homo sapiens, NCI-H460, 3 h, 3 hr compound incubation, Cisbio pERK HTRF
[12] = test system: MKN1 cells; assay: Inhibition of KRas-mediated phosphorylation of ERK (Cisbio HTRF pERK), MKN1 cells; type: cell-based; details: Homo sapiens, MKN-1, 3 hour compound incubation, Cisbio pERK HTRF
Outline: (§1)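 Growth medium is RPMI with 10% FBS, and each well receives 6,000 cells on the first day of the protocol.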

[13] = target: KRas G12V (Homo sapiens, UniProt P01116, G12V); assay: biochemical; details: Binding to KRas (IC50 nM) G12V, TR-FRET displacement, KRas G12V
Chain of KRas G12V (P01116 1-169 isoform P01116-2 G12V): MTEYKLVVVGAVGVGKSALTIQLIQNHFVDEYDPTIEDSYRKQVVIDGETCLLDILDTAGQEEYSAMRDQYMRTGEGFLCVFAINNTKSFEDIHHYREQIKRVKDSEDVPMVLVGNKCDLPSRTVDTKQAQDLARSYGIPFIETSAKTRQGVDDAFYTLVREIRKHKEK

[14] = target: KRas G12C (Homo sapiens, UniProt P01116, G12C); type: binding; details: single point, 10 nM compound, read-out: Binding to KRas (% inhibition at 10 nM) G12C
Chain of KRas G12C (P01116 1-169 isoform P01116-2 G12C): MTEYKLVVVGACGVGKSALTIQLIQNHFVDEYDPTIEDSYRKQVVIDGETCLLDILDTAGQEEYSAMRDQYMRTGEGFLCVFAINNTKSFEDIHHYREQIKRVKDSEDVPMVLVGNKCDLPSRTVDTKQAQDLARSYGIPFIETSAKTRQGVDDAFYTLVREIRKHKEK

[15] = test system: HCT116 cells; assay: Inhibition of KRas-mediated phosphorylation of ERK (Cisbio HTRF pERK), HCT116 cells; type: cell-based; details: Homo sapiens, HCT-116, 3 h, 3 hr compound incubation, Cisbio pERK HTRF
[16] = test system: H727 cells; assay: Inhibition of KRas-mediated phosphorylation of ERK (Cisbio HTRF pERK), H727 cells; type: cell-based; details: Homo sapiens; for IC50: NCI-H727, 3 h, 3 hr compound incubation, Cisbio pERK HTRF; for inhibition at 0.1 µM: NCI-H727, single point at 100 nM, 3 hrs compound incubation
[17] = test system: PSN1 cells; assay: Inhibition of KRas-mediated phosphorylation of ERK (Cisbio HTRF pERK), PSN1 cells; type: cell-based; details: Homo sapiens, PSN1, 3 h, 3 hour compound incubation, Cisbio pERK HTRF
Outline: as §1

Structure (SMILES)	IC50 [1]	IC50 [2]	inhibition at 0.01 µM [3]	inhibition at 0.01 µM [4]	IC50 [5]	inhibition at 0.01 µM [6]	inhibition at 0.01 µM [7]	inhibition at 0.01 µM [8]	IC50 [9]	IC50 [10]	IC50 [11]	IC50 [12]	IC50 [13]	inhibition at 0.01 µM [14]	IC50 [15]	IC50 [16]	IC50 [17]	inhibition at 0.1 µM [1]	inhibition at 0.1 µM [5]	inhibition at 0.1 µM [10]	also measured
CCc1c(F)ccc2cc(O)cc(N3CCc4c(nc(OC[C@@]56CCCN5C[C@H](F)C6)nc4N4CCCn5nc(C(=O)NC)c(C)c5C4)C3)c12 [Example 380, 5-(7-(8-ethyl-7-fluoro-3-hydroxynaphthalen-1-yl)-2-(((2R,7aS)-2-fluorohexahydro-1H-pyrrolizin-7a-yl)methoxy)-5,6,7,8-tetrahydropyrido[3,4-d]pyrimidin-4-yl)-N,3-dimethyl-5,6,7,8-tetrahydro-4H-pyrazolo[1,5-a][1,4]diazepine-2-carboxamide]	2 nM	< 2 nM	95%	94%	2 nM	96%	99%	93%	< 2 nM	3 nM	30 nM	10.8 nM	< 2 nM	99%	95 nM	5 nM	4720 nM	94%	81%	93%	inhibition at 0.1 µM [16]: 69%
CCc1c(F)ccc2cc(O)cc(N3CCc4c(nc(OC[C@@]56CCCN5C[C@H](F)C6)nc4N4CCCn5nc(C(=O)N(C)CCOC)cc5C4)C3)c12 [Example 382, 5-(7-(8-ethyl-7-fluoro-3-hydroxynaphthalen-1-yl)-2-(((2R,7aS)-2-fluorohexahydro-1H-pyrrolizin-7a-yl)methoxy)-5,6,7,8-tetrahydropyrido[3,4-d]pyrimidin-4-yl)-N-(2-methoxyethyl)-N-methyl-5,6,7,8-tetrahydro-4H-pyrazolo[1,5-a][1,4]diazepine-2-carboxamide]	2 nM	< 2 nM	97%	98%	15 nM	98%	99%	97%	< 2 nM	1 nM	25 nM	8.4 nM	< 2 nM	100%	51 nM	4 nM	2290 nM		80%	99%	
CCc1c(F)ccc2cc(O)cc(N3CCc4c(nc(OC[C@@]56CCCN5C[C@H](F)C6)nc4N4CCCn5nc(C(=O)NC6CC6)cc5C4)C3)c12 [Example 384, N-cyclopropyl-5-(7-(8-ethyl-7-fluoro-3-hydroxynaphthalen-1-yl)-2-(((2R,7aS)-2-fluorohexahydro-1H-pyrrolizin-7a-yl)methoxy)-5,6,7,8-tetrahydropyrido[3,4-d]pyrimidin-4-yl)-5,6,7,8-tetrahydro-4H-pyrazolo[1,5-a][1,4]diazepine-2-carboxamide]	2 nM	< 2 nM	95%	93%	17 nM	91%	98%	94%	< 2 nM	5 nM	25 nM	9 nM	< 2 nM	99%	91 nM	6 nM	3880 nM	98%	65%	100%	inhibition at 0.1 µM [16]: 79%
CCc1c(F)ccc2cc(O)cc(N3CCc4c(nc(OC[C@@]56CCCN5C[C@H](F)C6)nc4N4CCCn5nc(C(=O)N(C)C6CCC6)cc5C4)C3)c12 [Example 385, N-cyclobutyl-5-(7-(8-ethyl-7-fluoro-3-hydroxynaphthalen-1-yl)-2-(((2R,7aS)-2-fluorohexahydro-1H-pyrrolizin-7a-yl)methoxy)-5,6,7,8-tetrahydropyrido[3,4-d]pyrimidin-4-yl)-N-methyl-56,7,8-tetrahydro-4H-pyrazolo[1,5-a][1,4]diazepine-2-carboxamide]	3 nM	< 2 nM	96%	94%	15 nM	96%	98%	95%	< 2 nM	2 nM	22 nM	14.4 nM	< 2 nM	98%	85 nM	5 nM	3980 nM		74%	94%	

The next lines start with results.

IC50 [1]	IC50 [2]	inhibition at 0.01 µM [3]	inhibition at 0.01 µM [4]	IC50 [5]	inhibition at 0.01 µM [6]	inhibition at 0.01 µM [7]	inhibition at 0.01 µM [8]	IC50 [9]	IC50 [10]	IC50 [11]	IC50 [12]	IC50 [13]	inhibition at 0.01 µM [14]	IC50 [15]	IC50 [16]	IC50 [17]	Structure (SMILES)	inhibition at 0.1 µM [1]	inhibition at 0.1 µM [5]	inhibition at 0.1 µM [10]	also measured
2 nM	< 2 nM	97%	97%	7 nM	97%	99%	97%	< 2 nM	1 nM	11 nM	7 nM	< 2 nM	99%	45 nM	3 nM	3620 nM	CCc1c(F)ccc2cc(O)cc(N3CCc4c(nc(OC[C@@]56CCCN5C[C@H](F)C6)nc4N4CCCn5nc(C(=O)N(C)C(C)C)cc5C4)C3)c12 [Example 381, 5-(7-(8-ethyl-7-fluoro-3-hydroxynaphthalen-1-yl)-2-(((2R,7aS)-2-fluorohexahydro-11H-pyrrolizin-7a-yl)methoxy)-5,6,7,8-tetrahydropyrido[3,4-d]pyrimidin-4-yl)-N-isopropyl-N-methyl-5,6,7,8-tetrahydro-4H-pyrazolo[1,5-a][1,4]diazepine-2-carboxamide]		85%	98%	
1 nM	< 2 nM	98%	97%	5 nM	96%	99%	97%	< 2 nM	2 nM	13 nM	7.8 nM	< 2 nM	99%	73 nM	2 nM	3680 nM	CCc1c(F)ccc2cc(O)cc(N3CCc4c(nc(OC[C@@]56CCCN5C[C@H](F)C6)nc4N4CCCn5nc(C(=O)N(C)C6CC6)cc5C4)C3)c12 [Example 383, N-cyclopropyl-5-(7-(8-ethyl-7-fluoro-3-hydroxynaphthalen-1-yl)-2-(((2R,7aS)-2-fluorohexahydro-1H-pyrrolizin-7a-yl)methoxy)-5,6,7,8-tetrahydropyrido[3,4-d]pyrimidin-4-yl)-N-methyl-5,6,7,8-tetrahydro-4H-pyrazolo[1,5-a][1,4]diazepine-2-carboxamide]	97%	90%	98%	inhibition at 0.1 µM [16]: 85%
